From patent US12059413B2, “Methods of inhibiting viruses using compositions targeting TSG101-ubiquitin interaction” (The Research Foundation for the State University of New York, priority 2016, dated 2024)

Key:
[1] = target: T1, Tsg101 UEV domain (Homo sapiens, UniProt Q99816); experiment: Tsg101 melting curves with compounds, relative fluorescence (RFU) shift; format: binding; conditions: at 20 uM
T1 construct: Tsg101 UEV domain (residues 2-145) was encoded in a pET-28b vector; His6-TEV site (N, cleaved yes); made in house; host or cells: E. coli Rosetta 2 (DE3) pLysS
T1 sequence (Q99816 2-145): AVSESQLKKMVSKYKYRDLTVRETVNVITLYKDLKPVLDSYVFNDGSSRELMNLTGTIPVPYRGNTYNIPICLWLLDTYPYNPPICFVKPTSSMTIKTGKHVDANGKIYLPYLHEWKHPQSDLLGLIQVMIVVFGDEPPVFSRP
Description: FIG. 13B. TSG101 binding of prazole compounds. Melting curves of TSG101 with various prazole compounds assayed by relative fluorescence (RFU) shift. Two control compounds, K21 and N20, had no effect at 40 μM on the Tsg101 melting curve.
FIG. 14A-F. The ubiquitin E2 variant (UEV) domain of Tsg101 was purified by attaching it to an N-terminal His tag with a Tobacco Etch Virus nuclear-inclusion-a endopeptidase (TEV) cleavage site and isolating the tagged protein through two consecutive nickel columns. The first nickel column bound the Tsg101 with the His tag. Following cleavage of the His tag, Tsg101 flowed straight through the second column, removing any impurities from the cell lysate that also bound to the column in step 1, as well as the TEV protease enzyme.
F) Dose-dependence of Tsg101 normalized melting curves for N16 (top) and F15 (bottom). At same concentration, N16 shifts the melting curve to a greater extent to the left than F15. Specifically, at 20 uM, N16 caused a 12 degree Tm shift while F15 gave rise a 5 degree Tm shift. This difference correlated with the potency observed in the cell-based assay. The plot for N16 contains two control compounds, K21 and N20, which have no effect at 40 uM on the Tsg101 melting curve.

[2] = target: T1, Tsg101 UEV domain; experiment: NMR / LC-MS binding of compound to Tsg101 UEV domain
Description: N16 (20 mM solution, DMSO) was added to Tsg101 UEV domain in a 10:1 ratio (N16 excess).
For binding studies using NMR spectroscopy, the following complexes were made: Tsg101 UEV-N16, UEV-PTAP, UEV-Ub, UEV-N16-PTAP, and UEV-N16-Ub, all in Tsg101 NMR buffer: 20 mM potassium phosphate, 50 mM NaCl, pH 5.8, with UEV concentration of 200 μM.

[3] = test system: HIV-1 NL4-3; experiment: Specific virus infectivity by MAGI assay; format: cell-based; conditions: higher concentrations required
Description: FIG. 15A-D. N16 inhibits HIV-1 NL4-3 and Gag VLP production. A) Effect on virus production. Virus particles from N16-treated 293T cells transfected with pNL4-3 as determined by ELISA assay. Top, The compound was added 6 hr prior to DNA transfection and tissue culture media was harvested 24 hr later. Bottom, The compound was added at the indicated concentration 24 hr after DNA transfection and tissue culture media was harvested 24 hr later. Assay values were normalized to that of the DMSO carrier control. B) Effect on virus infectivity. Infectious viral particles per ng p24 as determined by MAGI assay. C) Left, Electron microscopy of particles at cell surface at 24 hr post-N16 addition; Right, Quantitative analysis of budding morphologies. […] Bottom, Quantitative analysis. […]
For production of virus particles, 293T cells were transfected with pNL4-3-ΔEnv and pIIIB Env3-1 plasmids and for virus-like particles (VLP), with pCMV-Gag-HA as previously described (Watanabe et al. (2013)). For specific infectivity, media-associated p24 was determined by ELISA (Immunodiagnostics, Inc.) and equivalent amounts of p24 were used to infect HeLa-CD4+-LTR-3 gal cells for infectivity measurement by the multinuclear activation of a galactosidase indicator (MAGI) assay. […] Virus particle release efficiency was calculated [VLP signal intensity/(VLP signal intensity+cell lysate signal intensity)]. […]

SMILES	Tm shift of Tsg101 melting curve [1] [degree]	residue bound in Tsg101 UEV (NMR and fluorescence perturbances) [2]	specific infectivity of the virus [3]	time to complete formation of N16 UEV complex ([2]; 10:1 N16 excess, chemical shift perturbations) [h]
COc1ccc2nc([S@@+]([O-])Cc3ncc(C)c(OC)c3C)[nH]c2c1 [F15, esomeprazole]	5	bind to residue C73	–	–
COc1ccc2[nH]c([S+]([O-])Cc3ncc(C)c(OC)c3C)nc2n1 (stereo not drawn) [N16, tenatoprazole]	12	bind to residue C73	diminished in dose-dependent fashion	2
